Key:
FASN enzyme = molecular target: T1, FASN enzyme (Homo sapiens, UniProt P49327); assay: Enzymatic assay for FASN inhibitors; type: biochemical; settings: 40 nM FASN enzyme, 25° C.
T1 construct: incubated with 10 μL of 40 nM FASN enzyme in assay buffer
Procedure: Assays were performed in a 384-well black plate to measure the inhibition of FASN activity by individual compounds disclosed herein. An aliquot of 250 nL of compound was incubated with 10 μL of 40 nM FASN enzyme in assay buffer (50 mM HEPES (pH=7.3), 0.5 mM EDTA, 1 mM ascorbate, 100 mM sodium chloride and 0.04% TritonX-100) in each well at 25° C. for 60 minutes. After the plate was centrifuged briefly, 10 μL of substrate mix (20 μM acetyl-CoA, 60 μM malonyl-CoA, and 100 μM NADPH in assay buffer) was added to each well. The reaction was maintained at 25° C. for 90 minutes. The reaction was then quenched by adding 10 μL of 90 μM 7-diethylamino-3-(4′-maleimidylpheynyl)-4-methylcoumarin in 50/50 ethanol/water solution. The assay plate was incubated at 25° C. for 15 minutes and read on a plate reader with excitation and emission wavelengths at 360 nm and 530 nm, respectively. The IC50 of a given compound was calculated by fitting the dose response curve with a four-parameter logistic equation. Data shown below in Table B, where compounds having an activity designated as “A” provided an IC50<100 nm and compounds having an activity designated as “B” provided an IC50 of 100 nm-1.00 μM.

[1] = Determination of brain exposure in Balb/c nude mice following oral administration; type: in vivo; settings: 5 mg/kg oral gavage; for Brain (μM) at 2 h / Plasma (μM) at 2 h / [Brain]/[Plasma] at 2 h: 2 h post dose; for Brain (μM) at 8 h / Plasma (μM) at 8 h / [Brain]/[Plasma] at 8 h: 8 h post dose; for Brain (μM) at 2, 8 h (single value) / Plasma (μM) at 2, 8 h (single value) / Kp: one value given, time point (2 or 8 h) not stated; for Kp: mouse, brain/plasma, read-out: [Brain]/[Plasma] at 2, 8 h (single value)
Procedure: Balb/c nude mice (body weight: 20-30 g; age range: approximately 6-8 weeks) were purchased from a qualified provider and acclimated for 5-7 days. The dosing formulation (dose: 5 mg/kg; concentration: 0.5 mg/mL; vehicle: PEG400:ethanol (v/v 9:1)) was prepared on the day of dosing and administered via oral gavage (dose volume: 10 mL/kg) to the mice (n=3 animals per time point). At the desired time point (2 or 8 h post dose) approximately 0.03 mL of blood sample was collected via venipuncture of peripheral veins into Heparin Na tubes and immediately placed on ice. After gently reverting the tube for approximately 10 seconds, the blood sample was centrifuged at 4,000×g for 5 minutes at 4° C. Supernatant was transferred into a micro-centrifuge tube and kept in a −80° C. freezer. Prior to brain collection, mice were fully exsanguinated via the following procedure: the chest cavity was opened, the ventricle was cut and a gentle iv saline flush (saline flush volume ˜20 mL) was performed with the animal placed head down at a 45 degree angle to facilitate blood removal. Brain samples were collected at the desired time point (2 or 8 h post dose), quick frozen in an ice box, and kept at −75±15° C. All brain samples were weighed and homogenated with buffer (brain weight (g) to PBS volume (mL) ratio of 1:4) before analysis. The actual concentration is the detected value multiplied by the dilution factor. For plasma sample analysis, plasma samples were quantified against a standard curve in plasma of Balb/c nude mice using an LC-MS/MS Method. For brain sample analysis, brain samples were quantified against a standard curve in brain homogenate of Balb/c nude mice using an LC-MS/MS Method. Each standard curve covered at least 6 calibration points including lower limit of quantification (LLOQ).

T1 sequence (P49327 whole entry): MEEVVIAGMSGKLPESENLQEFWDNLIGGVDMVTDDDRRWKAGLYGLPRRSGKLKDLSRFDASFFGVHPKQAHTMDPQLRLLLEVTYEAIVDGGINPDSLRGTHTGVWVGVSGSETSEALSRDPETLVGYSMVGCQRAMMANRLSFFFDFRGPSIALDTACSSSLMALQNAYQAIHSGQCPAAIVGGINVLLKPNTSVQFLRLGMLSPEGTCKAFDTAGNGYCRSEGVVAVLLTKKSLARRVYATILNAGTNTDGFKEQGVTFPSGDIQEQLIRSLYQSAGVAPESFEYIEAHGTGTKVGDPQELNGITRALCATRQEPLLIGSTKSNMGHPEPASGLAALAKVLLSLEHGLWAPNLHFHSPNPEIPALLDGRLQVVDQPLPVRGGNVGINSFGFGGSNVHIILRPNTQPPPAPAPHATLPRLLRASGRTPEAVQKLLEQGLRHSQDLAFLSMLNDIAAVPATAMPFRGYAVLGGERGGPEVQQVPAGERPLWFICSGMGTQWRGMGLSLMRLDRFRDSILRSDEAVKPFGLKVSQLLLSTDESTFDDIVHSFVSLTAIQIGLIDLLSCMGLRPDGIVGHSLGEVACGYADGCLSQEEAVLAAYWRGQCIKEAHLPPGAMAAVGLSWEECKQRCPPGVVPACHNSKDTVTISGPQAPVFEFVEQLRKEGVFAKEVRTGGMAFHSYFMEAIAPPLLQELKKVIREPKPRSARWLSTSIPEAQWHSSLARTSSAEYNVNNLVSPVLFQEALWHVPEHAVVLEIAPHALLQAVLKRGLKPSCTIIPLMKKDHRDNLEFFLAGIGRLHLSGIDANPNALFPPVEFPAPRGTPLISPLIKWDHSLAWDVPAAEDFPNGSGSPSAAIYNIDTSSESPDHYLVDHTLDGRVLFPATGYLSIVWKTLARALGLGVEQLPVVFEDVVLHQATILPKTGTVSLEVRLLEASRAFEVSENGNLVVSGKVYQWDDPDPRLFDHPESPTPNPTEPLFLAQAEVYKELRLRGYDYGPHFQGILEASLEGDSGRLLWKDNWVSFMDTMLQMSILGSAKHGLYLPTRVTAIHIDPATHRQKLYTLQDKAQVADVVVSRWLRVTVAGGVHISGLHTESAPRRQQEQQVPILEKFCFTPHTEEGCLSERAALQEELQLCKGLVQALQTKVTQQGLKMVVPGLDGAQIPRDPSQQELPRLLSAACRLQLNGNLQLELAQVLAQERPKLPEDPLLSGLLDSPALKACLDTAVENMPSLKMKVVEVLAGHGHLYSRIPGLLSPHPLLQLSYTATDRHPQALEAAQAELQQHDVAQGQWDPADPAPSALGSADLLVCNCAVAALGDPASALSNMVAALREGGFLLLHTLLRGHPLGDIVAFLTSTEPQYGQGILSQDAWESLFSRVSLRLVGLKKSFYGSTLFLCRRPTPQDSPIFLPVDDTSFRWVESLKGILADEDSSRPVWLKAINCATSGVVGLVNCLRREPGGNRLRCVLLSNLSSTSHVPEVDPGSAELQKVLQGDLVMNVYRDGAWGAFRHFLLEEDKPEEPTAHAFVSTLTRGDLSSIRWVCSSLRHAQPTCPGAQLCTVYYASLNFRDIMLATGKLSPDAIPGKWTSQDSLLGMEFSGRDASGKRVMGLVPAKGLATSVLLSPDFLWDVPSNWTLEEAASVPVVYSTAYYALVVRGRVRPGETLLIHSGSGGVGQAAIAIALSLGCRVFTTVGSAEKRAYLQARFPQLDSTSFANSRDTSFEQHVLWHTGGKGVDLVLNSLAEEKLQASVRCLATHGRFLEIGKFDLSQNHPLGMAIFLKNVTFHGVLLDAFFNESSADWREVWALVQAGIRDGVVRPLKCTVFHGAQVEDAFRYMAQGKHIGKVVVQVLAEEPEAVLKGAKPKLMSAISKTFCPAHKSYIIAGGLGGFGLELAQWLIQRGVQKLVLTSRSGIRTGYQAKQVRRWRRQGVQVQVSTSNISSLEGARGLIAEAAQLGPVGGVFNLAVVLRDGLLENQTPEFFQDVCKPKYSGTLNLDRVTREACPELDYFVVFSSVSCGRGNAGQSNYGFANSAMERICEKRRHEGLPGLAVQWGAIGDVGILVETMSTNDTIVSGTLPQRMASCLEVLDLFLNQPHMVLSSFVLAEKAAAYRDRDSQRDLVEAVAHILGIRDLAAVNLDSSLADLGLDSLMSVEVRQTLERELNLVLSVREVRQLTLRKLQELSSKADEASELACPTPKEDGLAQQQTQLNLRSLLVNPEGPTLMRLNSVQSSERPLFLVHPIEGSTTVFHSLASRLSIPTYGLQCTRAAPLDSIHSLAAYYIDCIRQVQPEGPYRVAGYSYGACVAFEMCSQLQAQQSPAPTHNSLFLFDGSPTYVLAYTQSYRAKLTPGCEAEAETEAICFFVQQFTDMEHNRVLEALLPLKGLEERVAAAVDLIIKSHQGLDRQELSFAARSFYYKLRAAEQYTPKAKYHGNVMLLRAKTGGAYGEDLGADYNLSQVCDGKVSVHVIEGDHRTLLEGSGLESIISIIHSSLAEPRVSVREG

IC50 (FASN enzyme) [nM] | Brain (μM) at 2 h [1] [µM] | Plasma (μM) at 2 h [1] [µM] | [Brain]/[Plasma] at 2 h [1] | Brain (μM) at 8 h [1] [µM] | Plasma (μM) at 8 h [1] [µM] | [Brain]/[Plasma] at 8 h [1] | Brain (μM) at 2, 8 h (single value) [1] [µM] | Plasma (μM) at 2, 8 h (single value) [1] [µM] | Kp [1] | SMILES
< 100 | 0.03 | 5.2 | 0.006 | 0.007 | 0.6 | 0.012 |  |  |  | Cn1cnc2cc(-c3ccc(C(=O)N4CCN(C(=O)C5(O)CC5)CC4)c(F)c3)ccc21 [Compound 9]
100 to 1000 | 1.4 | 8.4 | 0.17 | 0.62 | 3.3 | 0.19 |  |  |  | O=C(c1ccc(-c2nc3ccc(F)cc3o2)cc1F)N1CCN(C(=O)C2(O)CC2)CC1 [Compound 5]
100 to 1000 | 1.8 | 7.8 | 0.23 | 0.89 | 3.3 | 0.27 |  |  |  | O=C(c1ccc(-c2nc3ccc(F)cc3o2)cc1)N1CCN(C(=O)C2(O)CC2)CC1 [Compound 3]
< 100 | 0.3 | 1.4 | 0.20 | 0.01 | 0.06 | 0.21 |  |  |  | C[C@@H]1CN(C(=O)c2ccc(-c3nc4ccc(F)cc4o3)cc2)C[C@H](C)N1C(=O)C1(O)CC1 [Compound 2]
100 to 1000 |  |  |  |  |  |  | 0.013 | 0.238 | 0.05 | C[C@H]1CN(C(=O)c2ccc(-c3nc4ccc(F)cc4o3)cc2F)CCN1C(=O)C1(N)CC1 [Compound 7]
< 100 | 0.02 | 4.4 | 0.005 | 0.0 | 0.6 | 0.000 |  |  |  | C[C@H]1CN(C(=O)c2ccc(-c3ccc4c(c3)ncn4C)cc2)CCN1C(=O)C1(O)CC1 [Compound 11]
100 to 1000 | 1.3 | 7.3 | 0.18 | 0.40 | 2.1 | 0.20 |  |  |  | C[C@H]1CN(C(=O)c2ccc(-c3nc4ccc(F)cc4o3)cc2)CCN1C(=O)C1(O)CC1 [Compound 1]
< 100 | 0.28 | 5.8 | 0.05 | 0.12 | 3.1 | 0.04 |  |  |  | Cn1cc(-c2ccc(-c3ccc(C(=O)N4CCN(C(=O)C5(O)CC5)CC4)cc3)cc2)cn1 [Compound 13]
< 100 | 0.04 | 4.4 | 0.007 | 0.004 | 1.0 | 0.004 |  |  |  | C[C@H]1CN(C(=O)c2ccc(-c3ccc4c(c3)ncn4C)cc2F)CCN1C(=O)C1(O)CC1 [Compound 10]
100 to 1000 | 0.02 | 1.5 | 0.014 | 0.0 | 0.2 | 0.000 |  |  |  | Cn1cnc2cc(-c3ccc(C(=O)N4CCN(C(=O)C5(O)CC5)CC4)cc3)ccc21 [Compound 12]
100 to 1000 |  |  |  |  |  |  | 0.042 | 0.396 | 0.105 | O=C(c1ccc(-c2nc3ccc(F)cc3o2)cc1F)N1CCN(C(=O)[C@H]2CCCO2)CC1 [Compound 6]
100 to 1000 |  |  |  |  |  |  | 0.038 | 0.309 | 0.12 | C[C@@H]1CN(C(=O)c2ccc(-c3nc4ccc(F)cc4o3)cc2)C[C@H](C)N1C(=O)C1(N)CC1 [Compound 8]
< 100 | 1.6 | 10.6 | 0.15 | 0.17 | 1.1 | 0.16 |  |  |  | C[C@H]1CN(C(=O)c2ccc(-c3nc4ccc(F)cc4o3)cc2F)CCN1C(=O)C1(O)CC1 [Compound 4]

From patent US20210252011A1, “TREATMENT OF GLIOBLASTOMA WITH FASN INHIBITORS” (FORMA Therapeutics, Inc., priority 2017, published 2021)
